This note sets out measurements from PubChem BioAssay AID298 (DTP/NCI, 2004).

The assay deals with MX-1 breast xenograft, intrarenal, nude mice, tumor weight. As to the kind of experiment: NCI In Vivo Anticancer Drug Screen. Data for tumor model Human Mammary Carcinoma MX-1 Xenograft (intrarenal inoculation) in NU/NU BALB/C (nude) mice. The settings on record: endpoint: mean tumor weight change, higher = larger tumour. An outline of the steps: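 Transplantable tumors established in mice; animals dosed with compound or vehicle; survival or tumor size then recorded. Result reported as treated (T) divided by vehicle control (C).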

The mark [1] stands for this setting: dose: 300.0 mg/kg/injection, schedule: Q04DX003 (ip), vehicle: saline.
[2] abbreviates: dose: 75.0 mg/kg/injection, schedule: Q04DX003 (ip), vehicle: other.

Several values for one entry are separate records, joined by “and”; a condition that tells them apart may be missing. Identical values can stand only once. Results filed as inconclusive are left out.

On to `O=S(=O)(CCl)OCCCl`, for which the T/C reads like this: (dose: 25.0 mg/kg/injection, schedule: Q04DX003 (sc), vehicle: saline with Tween-80) 90 % of control; (dose: 50.0 mg/kg/injection, schedule: Q04DX003 (sc), vehicle: saline with Tween-80) 113 % of control; (dose: 100.0 mg/kg/injection, schedule: Q04DX003 (sc), vehicle: saline with Tween-80) 95 % of control.
In the case of `CCC12C[N+]3([O-])CCc4c([nH]c5ccccc45)C(C(=O)OC)(c4cc5c(cc4OC)N(C)C4C(O)(C(=O)OC)C(OC(C)=O)C6(CC)C=CCN7CCC54C76)CC(C3)C1O2` (centres undefined), the T/C was 109 % of control (dose: 80.0 mg/kg/injection, schedule: Q04DX003 (sc), vehicle: water); 117 % of control (dose: 160.0 mg/kg/injection, schedule: Q04DX003 (sc), vehicle: water); 123 % of control (dose: 320.0 mg/kg/injection, schedule: Q04DX003 (sc), vehicle: water); 88 % of control (dose: 640.0 mg/kg/injection, schedule: Q04DX003 (sc), vehicle: water).
Regarding `CN(CN1C(=O)CCC1=O)CN1C(=O)CCC1=O`, the T/C is 91 % of control (dose: 150.0 mg/kg/injection, schedule: Q04DX003 (ip), vehicle: saline) and 61 % of control under setting [1].
For `CO[C@@H]1C2=CC=CC=C[C@H]2n2c(=O)n(C)c(=O)n21`, the T/C is 36 % of control under setting [2]; 34 % of control (dose: 150.0 mg/kg/injection, schedule: Q04DX003 (ip), vehicle: other); 92 % of control (dose: 300.0 mg/kg/injection, schedule: Q04DX003 (ip), vehicle: other).
As for `O=C1C=CC2OC(c3ccccc3)C(O)C2O1` (centres undefined), the T/C (dose: 25.0 mg/kg/injection, schedule: Q04DX003 (ip), vehicle: DMSO) was 114 % of control and the T/C (dose: 50.0 mg/kg/injection, schedule: Q04DX003 (ip), vehicle: DMSO) was 40 % of control.
`O=c1n(CC2CO2)c(=O)n(CC2CO2)c(=O)n1CC1CO1` (centres undefined): the T/C is 37 % of control (dose: 25.0 mg/kg/injection, schedule: Q01DX010 (sc), vehicle: saline); 18 % of control (dose: 25.0 mg/kg/injection, schedule: Q04DX003 (sc), vehicle: suspension in saline); -100 % of control (dose: 50.0 mg/kg/injection, schedule: Q04DX003 (sc), vehicle: suspension in saline).
`COc1ccc(C=C(C(=O)CCN(C)C)C(=O)CCN(C)C)cc1`: the T/C is 93 % of control (dose: 50.0 mg/kg/injection, schedule: Q04DX003 (ip), vehicle: saline); 101 % of control (dose: 100.0 mg/kg/injection, schedule: Q04DX003 (ip), vehicle: saline); 96 % of control (dose: 200.0 mg/kg/injection, schedule: Q04DX003 (ip), vehicle: saline).
As for `O=NN(CCCl)C(=O)NCCCl`, the T/C was 60 % of control and 74 % of control (dose: 12.0 mg/kg/injection, schedule: Q04DX003 (ip), vehicle: saline + alcohol); 30 % of control (dose: 15.0 mg/kg/injection, schedule: Q04DX003 (sc), vehicle: Klucel (hydroxypropylcellulose) (HPC)); 27 % of control and 49 % of control (dose: 18.0 mg/kg/injection, schedule: Q04DX003 (ip), vehicle: saline + alcohol); 1 % of control (dose: 30.0 mg/kg/injection, schedule: Q04DX003 (sc), vehicle: Klucel (hydroxypropylcellulose) (HPC)).
In the case of `O=C1N[C@@H]2C(=C[C@H](O)[C@@H](O)[C@H]2O)c2cc3c(c(O)c21)OCO3`, under “dose: 1.25 mg/kg/injection, schedule: Q04DX003 (sc), vehicle: saline with Tween-80”, the T/C was 71 % of control.
On to `C/C(=N\NC(=S)N1CCN(c2ccccn2)CC1)c1ccccn1`, for which the T/C (dose: 75.0 mg/kg/injection, schedule: Q04DX003 (sc), vehicle: water) is 104 % of control.
With `COc1ccc2c(c1)n([O-])c1ccccc1[n+]2=O`, the T/C was 40 % of control (dose: 50.0 mg/kg/injection, schedule: Q04DX003 (ip), vehicle: saline with Tween-80); 48 % of control (dose: 100.0 mg/kg/injection, schedule: Q04DX003 (ip), vehicle: saline with Tween-80); 36 % of control (dose: 200.0 mg/kg/injection, schedule: Q04DX003 (ip), vehicle: saline with Tween-80).
Consider `Nc1nc([Se]c2nc(N)nc3c2ncn3C2OC(CO)C(O)C2O)c2ncn(C3OC(CO)C(O)C3O)c2n1` (centres undefined), for which the T/C (dose: 100.0 mg/kg/injection, schedule: Q04DX003 (ip), vehicle: distilled water + Tween-80) is 77 % of control; the T/C (dose: 200.0 mg/kg/injection, schedule: Q04DX003 (ip), vehicle: distilled water + Tween-80) was 78 % of control; the T/C (dose: 400.0 mg/kg/injection, schedule: Q04DX003 (ip), vehicle: distilled water + Tween-80) was 34 % of control.
`Nc1ccn([C@@H](C=O)O[C@@H](C=O)CO)c(=O)n1`: the T/C was 70 % of control (dose: 50.0 mg/kg/injection, schedule: Q04DX003 (sc), vehicle: saline); 14 % of control (dose: 100.0 mg/kg/injection, schedule: Q04DX003 (sc), vehicle: saline); -85 % of control (dose: 200.0 mg/kg/injection, schedule: Q04DX003 (sc), vehicle: saline).
In the case of `CCCCCCn1c(SC)nc(COC(=O)NC)c1COC(=O)NC`, the T/C reads like this: (dose: 33.7 mg/kg/injection, schedule: Q04DX003 (ip), vehicle: saline) 6 % of control; (dose: 67.5 mg/kg/injection, schedule: Q04DX003 (ip), vehicle: saline) -37 % of control; (dose: 135.0 mg/kg/injection, schedule: Q04DX003 (ip), vehicle: saline) -86 % of control; (dose: 270.0 mg/kg/injection, schedule: Q04DX003 (ip), vehicle: saline) -100 % of control.
With `NC(=O)SCC(N)C(=O)O` (centres undefined), the T/C under setting [1] is 88 % of control; the T/C (dose: 400.0 mg/kg/injection, schedule: Q04DX003 (sc), vehicle: saline) is 49 % of control; the T/C (dose: 600.0 mg/kg/injection, schedule: Q04DX003 (ip), vehicle: saline) was 80 % of control; the T/C (dose: 600.0 mg/kg/injection, schedule: Q04DX003 (sc), vehicle: saline) is 37 % of control and 52 % of control; the T/C (dose: 750.0 mg/kg/injection, schedule: Q04DX003 (sc), vehicle: saline) is 53 % of control; the T/C (dose: 900.0 mg/kg/injection, schedule: Q04DX003 (sc), vehicle: saline) is 16 % of control and 38 % of control.
Consider `O=NNc1cccnc1`, for which the T/C reads like this: (dose: 25.0 mg/kg/injection, schedule: Q04DX003 (ip), vehicle: water) 103 % of control and 113 % of control; (dose: 50.0 mg/kg/injection, schedule: Q04DX003 (ip), vehicle: water) 108 % of control.
For `OC(CBr)C(O)C(O)C(O)CBr` (centres undefined), the T/C was 29 % of control (dose: 15.0 mg/kg/injection, schedule: Q01DX010 (ip), vehicle: Klucel (hydroxypropylcellulose) (HPC)); 13 % of control (dose: 30.0 mg/kg/injection, schedule: Q01DX010 (ip), vehicle: Klucel (hydroxypropylcellulose) (HPC)); 93 % of control (dose: 50.0 mg/kg/injection, schedule: Q04DX003 (ip), vehicle: Klucel (hydroxypropylcellulose) (HPC)); 35 % of control (dose: 50.0 mg/kg/injection, schedule: Q04DX003 (sc), vehicle: Klucel (hydroxypropylcellulose) (HPC)); -22 % of control (dose: 60.0 mg/kg/injection, schedule: Q01DX010 (ip), vehicle: Klucel (hydroxypropylcellulose) (HPC)); 61 % of control (dose: 100.0 mg/kg/injection, schedule: Q04DX003 (ip), vehicle: Klucel (hydroxypropylcellulose) (HPC)). Also, the T/C (dose: 100.0 mg/kg/injection, schedule: Q04DX003 (sc), vehicle: Klucel (hydroxypropylcellulose) (HPC)) was 33 % of control and the T/C (dose: 200.0 mg/kg/injection, schedule: Q04DX003 (ip), vehicle: Klucel (hydroxypropylcellulose) (HPC)) is -44 % of control.
With `COc1ccc2ccccc2c1C1NC(=O)c2ccccc2N1` (centres undefined), the T/C is, setting by setting: (dose: 300.0 mg/kg/injection, schedule: Q04DX003 (sc), vehicle: Klucel (hydroxypropylcellulose) (HPC)) 79 % of control; (dose: 600.0 mg/kg/injection, schedule: Q04DX003 (sc), vehicle: Klucel (hydroxypropylcellulose) (HPC)) 104 % of control; (dose: 1200.0 mg/kg/injection, schedule: Q04DX003 (sc), vehicle: Klucel (hydroxypropylcellulose) (HPC)) 90 % of control; (dose: 2400.0 mg/kg/injection, schedule: Q04DX003 (sc), vehicle: Klucel (hydroxypropylcellulose) (HPC)) 63 % of control.
In the case of `O=NNc1ccc2cccnc2n1`, the T/C by setting is: (dose: 37.5 mg/kg/injection, schedule: Q04DX003 (ip), vehicle: other) 6 % of control; (dose: 37.5 mg/kg/injection, schedule: Q04DX003 (ip), vehicle: water) 63 % of control; under setting [2], -45 % of control; (dose: 75.0 mg/kg/injection, schedule: Q04DX003 (ip), vehicle: water) 17 % of control; (dose: 150.0 mg/kg/injection, schedule: Q04DX003 (ip), vehicle: water) 9 % of control.
